The values that follow are results of earlier work, collected in patent publication US20250231185A1, “Coronavirus T Cell Epitopes, Megapools and Uses Thereof” (La Jolla Institute for Immunology, priority 2021, published 2025).

In one data set the test system is CD8+ T cells. The note with it: CD8R (D) megapool epitopes; dominant = recognized by 3 or more donors/different studies; cited from earlier work.
As to 1755 (KMQRMLLEK) [compound 1755], the Dominant entry was “Yes (more dominant epitopes are defined by being recognized by 3 or more donors/different studies)”.

With 1719 (ISDYDYYRY) [compound 1719], the Dominant entry is reported as “Yes (more dominant epitopes are defined by being recognized by 3 or more donors/different studies)”. In the case of 1705 (MEVTPSGTWL) [compound 1705], the Dominant result is “Yes (more dominant epitopes are defined by being recognized by 3 or more donors/different studies)”. Consider 1684 (FPRGQGVPI) [compound 1684], for which the Dominant entry is listed as “Yes (more dominant epitopes are defined by being recognized by 3 or more donors/different studies)”. Consider 1711 (VLSEARQHL) [compound 1711], for which the Dominant entry was “Yes (more dominant epitopes are defined by being recognized by 3 or more donors/different studies)”. In the case of 1812 (RARSVSPKL) [compound 1812], the Dominant result is on record as “Yes (more dominant epitopes are defined by being recognized by 3 or more donors/different studies)”. Turning to 1781 (GTDLEGNFY) [compound 1781], the Dominant entry was “Yes (more dominant epitopes are defined by being recognized by 3 or more donors/different studies)”. With 1763 (QEILGTVSW) [compound 1763], the Dominant entry is recorded as “Yes (more dominant epitopes are defined by being recognized by 3 or more donors/different studies)”. In the case of 1723 (MVMCGGSLYV) [compound 1723], the Dominant result is “Yes (more dominant epitopes are defined by being recognized by 3 or more donors/different studies)”. For the substance 1784 (SAFAMMFVK) [compound 1784], the Dominant entry is on record as “Yes (more dominant epitopes are defined by being recognized by 3 or more donors/different studies)”. On to 1787 (KLKDCVMYA) [compound 1787], for which the Dominant result is “Yes (more dominant epitopes are defined by being recognized by 3 or more donors/different studies)”. Turning to 1801 (FVRATATIPI) [compound 1801], the Dominant entry is “Yes (more dominant epitopes are defined by being recognized by 3 or more donors/different studies)”. Regarding 1745 (ALLADKFPV) [compound 1745], the Dominant result was “Yes (more dominant epitopes are defined by being recognized by 3 or more donors/different studies)”. Regarding 1765 (YLATALLTL) [compound 1765], the Dominant entry was “Yes (more dominant epitopes are defined by being recognized by 3 or more donors/different studies)”. For the substance 1785 (FLLPSLATV) [compound 1785], the Dominant entry was “Yes (more dominant epitopes are defined by being recognized by 3 or more donors/different studies)”. Turning to 1797 (CTDDNALAYY) [compound 1797], the Dominant entry is listed as “Yes (more dominant epitopes are defined by being recognized by 3 or more donors/different studies)”.

As for 1728 (LYLQYIRKL) [compound 1728], the Dominant result is listed as “Yes (more dominant epitopes are defined by being recognized by 3 or more donors/different studies)”.

Still in this data set, the particulars now being: CD8RE megapool peptides (non-spike SARS-CoV-2 antigens); dominant epitope Yes/No; cited from earlier work.
For 2995 (VTNNTFTLK) [compound 2995], the Dominant result was “Yes (more dominant epitopes are defined by being recognized by 3 or more donors/different studies)”. Regarding 3014 (VRIQPGQTF) [compound 3014], the Dominant entry is listed as “Yes (more dominant epitopes are defined by being recognized by 3 or more donors/different studies)”.

For 2901 (SLVKPSFYV) [compound 2901], the Dominant result is listed as “Yes (more dominant epitopes are defined by being recognized by 3 or more donors/different studies)”.

In the case of 2902 (YVYSRVKNL) [compound 2902], the Dominant result is “Yes (more dominant epitopes are defined by being recognized by 3 or more donors/different studies)”.

3022 (KLKDCVMYA) [compound 3022]: the Dominant entry is reported as “Yes (more dominant epitopes are defined by being recognized by 3 or more donors/different studies)”. For 3018 (FLNRFTTTL) [compound 3018], the Dominant entry is reported as “Yes (more dominant epitopes are defined by being recognized by 3 or more donors/different studies)”. Take 3009 (FSAVGNICY) [compound 3009]: the Dominant entry is listed as “Yes (more dominant epitopes are defined by being recognized by 3 or more donors/different studies)”. As to 2926 (ATEGALNTPK) [compound 2926], the Dominant result is on record as “Yes (more dominant epitopes are defined by being recognized by 3 or more donors/different studies)”. Take 2939 (MEVTPSGTW) [compound 2939]: the Dominant result is on record as “Yes (more dominant epitopes are defined by being recognized by 3 or more donors/different studies)”.

2987 (LLLDDFVEII) [compound 2987]: the Dominant entry is “Yes (more dominant epitopes are defined by being recognized by 3 or more donors/different studies)”. On to 2905 (FLFLTWICL) [compound 2905], for which the Dominant entry is reported as “Yes (more dominant epitopes are defined by being recognized by 3 or more donors/different studies)”.

The same data set, now with this note: SARS-CoV-2-derived CD8 epitopes; dominant = recognized by 3 or more donors/different studies; cited from earlier work.
In the case of 538 (ASAFFGMSR) [compound 538], the Dominant entry is “Yes (more dominant epitopes are defined by being recognized by 3 or more donors/different studies)”.

Take 502 (SPRWYFYYL) [compound 502]: the Dominant entry is recorded as “Yes (more dominant epitopes are defined by being recognized by 3 or more donors/different studies)”. For 555 (LPAADLDDF) [compound 555], the Dominant entry was “Yes (more dominant epitopes are defined by being recognized by 3 or more donors/different studies)”. Turning to 594 (YLFDESGEFKL) [compound 594], the Dominant result is recorded as “Yes (more dominant epitopes are defined by being recognized by 3 or more donors/different studies)”. In the case of 514 (VLQLPQGTTL) [compound 514], the Dominant result is “Yes (more dominant epitopes are defined by being recognized by 3 or more donors/different studies)”. For the substance 533 (AQFAPSASAF) [compound 533], the Dominant entry is “Yes (more dominant epitopes are defined by being recognized by 3 or more donors/different studies)”. For 510 (ATEGALNTPKDHI) [compound 510], the Dominant result is “Yes (more dominant epitopes are defined by being recognized by 3 or more donors/different studies)”.

Still in this data set, the particulars now being: SARS-CoV-2 Ag S; T cell type recognizing the epitope; cited from earlier work.
1436 (FPREGVFV) [compound 1436]: the Restriction entry is “CD8”. As to 1299 (DSKVGGNYNY) [compound 1299], the Restriction entry was “CD8”. For the substance 1402 (ALNTLVKQL) [compound 1402], the Restriction entry was “CD8”.

Turning to 1391 (WTFGAGAAL) [compound 1391], the Restriction result is “CD8”.

Consider 1444 (WFVTQRNFY) [compound 1444], for which the Restriction result is on record as “CD8”. As to 1449 (SFKEELDKY) [compound 1449], the Restriction result is recorded as “CD8”.

The data set is the same for the next values; noted with them: T cell subset (CD4 or CD8) recognizing the SARS-CoV-2-derived epitope; cited from earlier work.
With 538 (ASAFFGMSR) [compound 538], the Restriction result is “CD8”. On to 590 (VLNEKCSAY) [compound 590], for which the Restriction result is given as “CD8”.

In the case of 564 (IPVAYRKVLL) [compound 564], the Restriction entry is “CD8”.

As for 534 (QFAPSASAFF) [compound 534], the Restriction entry is recorded as “CD8”. In the case of 502 (SPRWYFYYL) [compound 502], the Restriction entry is on record as “CD8”.

675 (LGDVRETMSY) [compound 675]: the Restriction result is reported as “CD8”. Take 646 (TSNPTTFHL) [compound 646]: the Restriction result was “CD8”. In the case of 556 (AADLDDFSKQL) [compound 556], the Restriction result is “CD8”. Consider 555 (LPAADLDDF) [compound 555], for which the Restriction entry is on record as “CD8”. As to 652 (NINLHTQVV) [compound 652], the Restriction result was “CD8”. In the case of 594 (YLFDESGEFKL) [compound 594], the Restriction result was “CD8”. Consider 536 (APSASAFFGM) [compound 536], for which the Restriction entry is “CD8”. Consider 592 (SELLTPLGI) [compound 592], for which the Restriction entry is reported as “CD8”. As to 514 (VLQLPQGTTL) [compound 514], the Restriction result was “CD8”. Regarding 672 (ARAGEAANF) [compound 672], the Restriction entry is “CD8”. As for 533 (AQFAPSASAF) [compound 533], the Restriction entry was “CD8”. Regarding 510 (ATEGALNTPKDHI) [compound 510], the Restriction result is on record as “CD8”. In the case of 653 (HTQVVDMSMTY) [compound 653], the Restriction entry is recorded as “CD8”. With 612 (LLSAGIFGA) [compound 612], the Restriction entry is “CD8”. In the case of 588 (FELDERIDKVL) [compound 588], the Restriction entry is reported as “CD8”. Take 596 (DDYQGKPLEF) [compound 596]: the Restriction result is recorded as “CD8”. Consider 695 (KFADDLNQL) [compound 695], for which the Restriction result is listed as “CD8”. Turning to 630 (TTYPGQGLNGY) [compound 630], the Restriction result is “CD8”. 681 (YTGNYQCGHY) [compound 681]: the Restriction result is “CD8”.

With 626 (ALRKVPTDNY) [compound 626], the Restriction entry is reported as “CD8”.

For the substance 636 (AIVSTIQRKYK) [compound 636], the Restriction result is recorded as “CD8”.

649 (ITFDNLKTL) [compound 649]: the Restriction entry is on record as “CD8”.

Still in this data set, the particulars now being: T cell type (CD4 or CD8) recognizing the SARS-CoV-2 epitope; cited from earlier work.
In the case of 1070 (NTFTRLQSL) [compound 1070], the Restriction result is “CD8”. For the substance 938 (SLLMPILTL) [compound 938], the Restriction entry is “CD8”.

Regarding 1016 (WEPEFYEAM) [compound 1016], the Restriction result is “CD8”. Consider 1022 (KPPISFPL) [compound 1022], for which the Restriction entry is reported as “CD8”. Take 933 (FVENPDILRV) [compound 933]: the Restriction entry is “CD8”.

For the substance 1021 (QLYLGGMSYY) [compound 1021], the Restriction entry is recorded as “CD8”. Take 1093 (KLMGHFAWW) [compound 1093]: the Restriction result is “CD8”. As to 1076 (KVDGVVQQL) [compound 1076], the Restriction entry was “CD8”. Regarding 1080 (FIPMDSTVKNY) [compound 1080], the Restriction result is recorded as “CD8”. 1017 (AMYTPHTVL) [compound 1017]: the Restriction entry was “CD8”. On to 1074 (TICAPLTVF) [compound 1074], for which the Restriction result is recorded as “CD8”. Turning to 1044 (AVASKILGL) [compound 1044], the Restriction result is on record as “CD8”. As to 1081 (LLLDDFVEI) [compound 1081], the Restriction result is “CD8”. Consider 1096 (YVMHANYIF) [compound 1096], for which the Restriction result is listed as “CD8”.
